Assay results from publication PMC7527709 (Redox Biology, 2020).

Assays:
[1] = molecular target: T1, Kv1.3 (Homo sapiens, UniProt P22001); assay: whole-cell patch clamp of Kv1.[…] current in Jurkat lymphocytes, […] compound; assay type: cell-based; conditions: read-out: % inhibition at 1 μM
[2] = molecular target: T1, Kv1.3; assay: whole-cell patch clamp, Kv1.[…] stably expressed in CHO cells; assay type: cell-based

T1 sequence (P22001 whole entry): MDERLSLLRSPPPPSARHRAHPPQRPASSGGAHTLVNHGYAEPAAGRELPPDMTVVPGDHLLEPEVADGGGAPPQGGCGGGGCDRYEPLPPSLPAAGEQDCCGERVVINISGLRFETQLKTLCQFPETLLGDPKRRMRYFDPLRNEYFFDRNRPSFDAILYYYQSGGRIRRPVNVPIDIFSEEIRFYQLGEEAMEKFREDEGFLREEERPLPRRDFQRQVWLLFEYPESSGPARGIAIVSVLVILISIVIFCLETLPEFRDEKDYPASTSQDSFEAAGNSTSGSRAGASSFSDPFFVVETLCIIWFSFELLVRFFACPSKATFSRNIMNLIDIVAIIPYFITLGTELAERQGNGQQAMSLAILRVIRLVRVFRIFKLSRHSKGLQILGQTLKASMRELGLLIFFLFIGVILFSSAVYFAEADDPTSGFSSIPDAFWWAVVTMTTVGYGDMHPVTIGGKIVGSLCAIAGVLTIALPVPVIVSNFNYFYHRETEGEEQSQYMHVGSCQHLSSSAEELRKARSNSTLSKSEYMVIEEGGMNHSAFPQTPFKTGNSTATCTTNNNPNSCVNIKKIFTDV

inhibition at 1 µM [1] [%] | Structure (SMILES) | EC50 [2] [nM]
~70 | CCCCCOc1ccc(OCCOCCOCCOCCOCCOCCOC)cc1 [POP-MHEG, 19-(4-(pentyloxy)phenoxy)-2,5,8,11,14,17-hexaoxanonadecane] | 
 | COCCOCCOCCOCCOCCOCCOc1ccc(OCCCCOc2c3ccoc3cc3oc(=O)ccc23)cc1 [PAP-1-MHEG, 4-(4-(4-(2,5,8,11,14,17-hexaoxanonadecan-19-yloxy)phenoxy)butoxy)-7H-furo[3,2-g]chromen-7-one] | 350 ± 30
